According to patent publication US10189841B2, “Purinones as ubiquitin-specific protease 1 inhibitors” (Forma Therapeutics, Inc., priority 2015, dated 2019):

These compounds were tested against USP1 (construct USP1 (I-785, GG670, 671AA)/UAF1 (I-677)-Flag) (Homo sapiens (Human), UniProt O94782, G670A/G671A) (assay: Ubiquitin-Rhodamine 110 assay for USP1 activity). Settings: USP1/UAF1 25 pM, Ub-Rh110 25 nM, 30 min preincubation.
Type: biochemical
Summary of the method: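 Two formats with the USP1/UAF1 complex and 25 nM ubiquitin-rhodamine 110 in pH 8.0 Tris buffer with calcium, glutathione and detergent. Single-point screening used 10 µM, 100 pM enzyme and 45 min. Inhibition was set against no-enzyme and DMSO wells.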

USP1 (construct USP1 (I-785, GG670, 671AA)/UAF1 (I-677)-Flag), sequence (O94782 whole entry G670A/G671A): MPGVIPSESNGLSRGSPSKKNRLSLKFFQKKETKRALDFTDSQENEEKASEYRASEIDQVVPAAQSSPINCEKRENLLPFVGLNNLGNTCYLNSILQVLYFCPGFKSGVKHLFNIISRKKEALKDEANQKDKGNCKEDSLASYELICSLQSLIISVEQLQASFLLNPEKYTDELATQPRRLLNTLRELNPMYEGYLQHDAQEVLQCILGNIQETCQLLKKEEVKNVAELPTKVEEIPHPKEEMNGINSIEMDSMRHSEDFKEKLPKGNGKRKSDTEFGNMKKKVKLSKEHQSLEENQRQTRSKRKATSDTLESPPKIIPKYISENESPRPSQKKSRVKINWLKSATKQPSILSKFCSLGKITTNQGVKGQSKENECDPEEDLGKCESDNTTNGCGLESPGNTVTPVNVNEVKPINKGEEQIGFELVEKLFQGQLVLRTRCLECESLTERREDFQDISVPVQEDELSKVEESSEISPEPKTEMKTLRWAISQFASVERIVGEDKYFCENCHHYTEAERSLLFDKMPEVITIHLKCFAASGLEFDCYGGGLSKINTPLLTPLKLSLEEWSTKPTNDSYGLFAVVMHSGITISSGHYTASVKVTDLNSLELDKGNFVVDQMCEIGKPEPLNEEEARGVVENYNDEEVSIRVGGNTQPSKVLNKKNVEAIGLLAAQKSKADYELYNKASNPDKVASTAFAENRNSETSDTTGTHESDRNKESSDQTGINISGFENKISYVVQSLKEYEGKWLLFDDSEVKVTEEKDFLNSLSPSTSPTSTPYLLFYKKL
USP1 (construct USP1 (I-785, GG670, 671AA)/UAF1 (I-677)-Flag), sequence (Q8TAF3 whole entry partner): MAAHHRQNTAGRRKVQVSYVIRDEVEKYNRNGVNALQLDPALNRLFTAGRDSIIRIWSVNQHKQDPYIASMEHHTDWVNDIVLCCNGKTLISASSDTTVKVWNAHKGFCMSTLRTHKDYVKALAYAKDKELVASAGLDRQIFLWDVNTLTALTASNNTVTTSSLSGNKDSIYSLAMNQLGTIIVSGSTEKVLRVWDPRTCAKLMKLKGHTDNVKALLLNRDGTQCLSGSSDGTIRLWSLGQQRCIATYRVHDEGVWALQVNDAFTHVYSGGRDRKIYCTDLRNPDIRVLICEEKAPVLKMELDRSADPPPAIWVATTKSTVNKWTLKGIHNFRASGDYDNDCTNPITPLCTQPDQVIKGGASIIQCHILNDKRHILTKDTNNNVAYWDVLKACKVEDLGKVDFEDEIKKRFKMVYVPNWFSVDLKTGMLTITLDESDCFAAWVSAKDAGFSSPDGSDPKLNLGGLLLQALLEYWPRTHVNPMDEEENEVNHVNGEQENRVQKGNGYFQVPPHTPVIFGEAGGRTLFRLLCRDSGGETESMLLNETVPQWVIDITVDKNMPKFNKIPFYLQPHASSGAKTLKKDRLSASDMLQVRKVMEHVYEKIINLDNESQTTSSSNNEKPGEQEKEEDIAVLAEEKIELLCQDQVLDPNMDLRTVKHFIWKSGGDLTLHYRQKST

SMILES | IC50
CC(=O)N1CCC(c2ccn(-c3ccc(Cn4c(=O)[nH]c5cnc(-c6ccccc6C(C)C)nc54)cc3)n2)C1 (stereo not shown) [Compound I-467, 9-(4-(3-(1-acetylpyrrolidin-3-yl)-1H-pyrazol-1-yl)benzyl)-2-(2-isopropylphenyl)-7,9-dihydro-8H-purin-8-one] | 50 to 200 nM
CC(=O)N1CCCC(c2ccn(-c3ccc(Cn4c(=O)[nH]c5cnc(-c6ccccc6C(C)C)nc54)cc3)n2)C1 (stereo not shown) [Compound I-468, 9-(4-(3-(1-acetylpiperidin-3-yl)-1H-pyrazol-1-yl)benzyl)-2-(2-isopropylphenyl)-7,9-dihydro-8H-purin-8-one] | < 50 nM
Cc1cc(C(=O)Nc2ccc(Cn3c(=O)n(C)c4cnc(-c5ccccc5C(C)C)nc43)cc2)n(C)n1 [Compound I-469, N-(4-((2-(2-isopropylphenyl)-7-methyl-8-oxo-7,8-dihydro-9H-purin-9-yl)methyl)phenyl)-1,3-dimethyl-1H-pyrazole-5-carboxamide] | 200 to 2000 nM
Cc1cc(C(=O)N(C)c2ccc(Cn3c(=O)n(C)c4cnc(-c5ccccc5C(C)C)nc43)cc2)n[nH]1 [Compound I-470, N-(4-((2-(2-isopropylphenyl)-7-methyl-8-oxo-7,8-dihydro-9H-purin-9-yl)methyl)phenyl)-N,5-dimethyl-1H-pyrazole-3-carboxamide] | > 2000 nM
Cc1cc(C(=O)N(C)c2ccc(Cn3c(=O)n(C)c4cnc(-c5ccccc5C(C)C)nc43)cc2)n(C)n1 [Compound I-471, N-(4-((2-(2-isopropylphenyl)-7-methyl-8-oxo-7,8-dihydro-9H-purin-9-yl)methyl)phenyl)-N,1,3-trimethyl-1H-pyrazole-5-carboxamide] | > 2000 nM
CC(=O)N1CCC(c2cn(C)c(-c3ccc(Cn4c(=O)[nH]c5cnc(-c6ccccc6C(C)C)nc54)cc3)n2)CC1 [Compound I-472, 9-(4-(4-(1-acetylpiperidin-4-yl)-1-methyl-1H-imidazol-2-yl)benzyl)-2-(2-isopropylphenyl)-7,9-dihydro-8H-purin-8-one] | < 50 nM
CC(=O)N1CCC(c2cnc(-c3ccc(Cn4c(=O)[nH]c5cnc(-c6ccccc6C(C)C)nc54)cc3)n2C)CC1 [Compound I-473, 9-(4-(5-(1-acetylpiperidin-4-yl)-1-methyl-lH-imidazol-2-yl)benzyl)-2-(2-isopropylphenyl)-7,9-dihydro-8H-purin-8-one] | < 50 nM
CC(=O)N1CCC(c2ccn(-c3ccc(Cn4c(=O)[nH]c5cnc(-c6c(F)cccc6C(C)C)nc54)cc3)n2)CC1 [Compound I-474, 9-(4-(3-(1-acetylpiperidin-4-yl)-1H-pyrazol-1-yl)benzyl)-2-(2-fluoro-6-isopropylphenyl)-7,9-dihydro-8H-purin-8-one] | < 50 nM
CC(C)C(=O)N1CCC(F)(Cn2c(=O)[nH]c3cnc(-c4ccccc4C(C)C)nc32)CC1 [Compound I-475, 9-((4-fluoro-1-isobutyrylpiperidin-4-yl)methyl)-2-(2-isopropylphenyl)-7,9-dihydro-8H-purin-8-one] | > 2000 nM
CC(=O)N1CC(n2cc(C(F)(F)F)nc2-c2ccc(Cn3c(=O)[nH]c4cnc(-c5ccccc5C(C)C)nc43)cc2)C1 [Compound I-476, 9-(4-(1-(1-acetylazetidin-3-yl)-4-(trifluoromethyl)-1H-imidazol-2-yl)benzyl)-2-(2-isopropylphenyl)-7,9-dihydro-8H-purin-8-one] | < 50 nM
CC(=O)N1CC(n2cc(C(F)(F)F)nc2-c2ccc(Cn3c(=O)[nH]c4cnc(-c5cccnc5C(C)C)nc43)cc2)C1 [Compound I-477, 9-(4-(1-(1-acetylazetidin-3-yl)-4-(trifluoromethyl)-1H-imidazol-2-yl)benzyl)-2-(2-isopropylpyridin-3-yl)-7,9-dihydro-8H-purin-8-one] | < 50 nM
CC(C)NC(=O)N1CCC(Cn2c(=O)n(C)c3cnc(-c4ccccc4C(C)C)nc32)CC1 [Compound I-478, N-isopropyl-4-((2-(2-isopropylphenyl)-7-methyl-8-oxo-7,8-dihydro-9H-purin-9-yl)methyl)piperidine-1-carboxamide] | > 2000 nM
CC(C)c1ccccc1-c1ncc2c(n1)n(CC1CCN(C(=O)NC3CC3)CC1)c(=O)n2C [Compound I-479, N-cyclopropyl-4-((2-(2-isopropylphenyl)-7-methyl-8-oxo-7,8-dihydro-9H-purin-9-yl)methyl)piperidine-1-carboxamide] | > 2000 nM
CNC(=O)N1CCC(c2ccn(-c3ccc(Cn4c(=O)[nH]c5cnc(-c6ccccc6C(C)C)nc54)cc3)n2)CC1 [Compound I-480, 4-(1-(4-((2-(2-isopropylphenyl)-8-oxo-7,8-dihydro-9H-purin-9-yl)methyl)phenyl)-1H-pyrazol-3-yl)-N-methylpiperidine-1-carboxamide] | < 50 nM
CC(C)NC(=O)Nc1ccc(Cn2c(=O)n(C)c3cnc(-c4ccccc4C(C)C)nc32)cc1 [Compound I-481, 1-isopropyl-3-(4-((2-(2-isopropylphenyl)-7-methyl-8-oxo-7,8-dihydro-9H-purin-9-yl)methyl)phenyl)urea] | 50 to 200 nM
COCCNC(=O)Nc1ccc(Cn2c(=O)n(C)c3cnc(-c4ccccc4C(C)C)nc32)cc1 [Compound I-482, 1-(4-((2-(2-isopropylphenyl)-7-methyl-8-oxo-7,8-dihydro-9H-purin-9-yl)methyl)phenyl)-3-(2-methoxyethyl)urea] | 200 to 2000 nM

SMILES | IC50
CC(C)c1ccccc1-c1ncc2c(n1)n(Cc1ccc(NC(=O)NC3CC3)cc1)c(=O)n2C [Compound I-483, 1-cyclopropyl-3-(4-((2-(2-isopropylphenyl)-7-methyl-8-oxo-7,8-dihydro-9H-purin-9-yl)methyl)phenyl)urea] | 200 to 2000 nM
CC(C)NC(=O)N(C)c1ccc(Cn2c(=O)n(C)c3cnc(-c4ccccc4C(C)C)nc32)cc1 [Compound I-484, 3-isopropyl-1-(4-((2-(2-isopropylphenyl)-7-methyl-8-oxo-7,8-dihydro-9H-purin-9-yl)methyl)phenyl)-1-methylurea] | 200 to 2000 nM
COCCNC(=O)N(C)c1ccc(Cn2c(=O)n(C)c3cnc(-c4ccccc4C(C)C)nc32)cc1 [Compound I-485, 1-(4-((2-(2-isopropylphenyl)-7-methyl-8-oxo-7,8-dihydro-9H-purin-9-yl)methyl)phenyl)-3-(2-methoxyethyl)-1-methylurea] | > 2000 nM
CC(C)c1ccccc1-c1ncc2c(n1)n(Cc1ccc(N(C)C(=O)NC3CC3)cc1)c(=O)n2C [Compound I-486, 3-cyclopropyl-1-(4-((2-(2-isopropylphenyl)-7-methyl-8-oxo-7,8-dihydro-9H-purin-9-yl)methyl)phenyl)-1-methylurea] | 200 to 2000 nM
CC(C)NC(=O)N1CCC(F)(Cn2c(=O)[nH]c3cnc(-c4ccccc4C(C)C)nc32)CC1 [Compound I-487, 4-fluoro-N-isopropyl-4-((2-(2-isopropylphenyl)-8-oxo-7,8-dihydro-9H-purin-9-yl)methyl)piperidine-1-carboxamide] | > 2000 nM
CC(C)c1ccccc1-c1ncc2c(n1)n(Cc1ccc(NCC3CC3)cc1)c(=O)n2C [Compound I-488, 9-(4-((cyclopropylmethyl)amino)benzyl)-2-(2-isopropylphenyl)-7-methyl-7,9-dihydro-8H-purin-8-one] | 50 to 200 nM
COCCNc1ccc(Cn2c(=O)n(C)c3cnc(-c4ccccc4C(C)C)nc32)cc1 [Compound I-489, 2-(2-isopropylphenyl)-9-(4-((2-methoxyethyl)amino)benzyl)-7-methyl-7,9-dihydro-8H-purin-8-one] | 50 to 200 nM
CC(C)c1ccccc1-c1ncc2c(n1)n(Cc1ccc(N(C)CC3CC3)cc1)c(=O)n2C [Compound I-490, 9-(4-((cyclopropylmethyl)(methyl)amino)benzyl)-2-(2-isopropylphenyl)-7-methyl-7,9-dihydro-8H-purin-8-one] | 200 to 2000 nM
COCCN(C)c1ccc(Cn2c(=O)n(C)c3cnc(-c4ccccc4C(C)C)nc32)cc1 [Compound I-491, 2-(2-isopropylphenyl)-9-(4-((2-methoxyethyl)(methyl)amino)benzyl)-7-methyl-7,9-dihydro-8H-purin-8-one] | 200 to 2000 nM
CC(C)c1ccccc1-c1ncc2c(n1)n(CC1CCN(c3nncs3)CC1)c(=O)n2C [Compound I-492, 9-((1-(1,3,4-thiadiazol-2-yl)piperidin-4-yl)methyl)-2-(2-isopropylphenyl)-7-methyl-7,9-dihydro-8H-purin-8-one] | > 2000 nM
CC(C)c1ccccc1-c1ncc2c(n1)n(CC1CCN(c3ncccn3)CC1)c(=O)n2C [Compound I-493, 2-(2-isopropylphenyl)-7-methyl-9-((1-(pyrimidin-2-yl)piperidin-4-yl)methyl)-7,9-dihydro-8H-purin-8-one] | > 2000 nM
Cc1nc(N2CCC(Cn3c(=O)n(C)c4cnc(-c5ccccc5C(C)C)nc43)CC2)c(C)s1 [Compound I-494, 9-((1-(2,5-dimethylthiazol-4-yl)piperidin-4-yl)methyl)-2-(2-isopropylphenyl)-7-methyl-7,9-dihydro-8H-purin-8-one] | 50 to 200 nM
CC(C)c1ccccc1-c1ncc2[nH]c(=O)n(C3CCC34CN(c3cccnc3)C4)c2n1 (stereo not shown) [Compound I-495, 2-(2-isopropylphenyl)-9-(2-(pyridin-3-yl)-2-azaspiro[3.3]heptan-5-yl)-7,9-dihydro-8H-purin-8-one] | 200 to 2000 nM
CCn1ccnc1-c1ccc(Cn2c(=O)n(C)c3cnc(-c4ccccc4C(C)C)nc32)cc1 [Compound I-496, 9-(4-(1-ethyl-1H-imidazol-2-yl)benzyl)-2-(2-isopropylphenyl)-7-methyl-7,9-dihydro-8H-purin-8-one] | < 50 nM
CC(C)c1ccccc1-c1ncc2c(n1)n(Cc1ccc(-c3nccn3C(C)C)cc1)c(=O)n2C [Compound I-497, 9-(4-(1-isopropyl-1H-imidazol-2-yl)benzyl)-2-(2-isopropylphenyl)-7-methyl-7,9-dihydro-8H-purin-8-one] | < 50 nM
